Test system: 377384-186-R-J1-PDC complex spheroid viability
Test: Anticancer human tumor 377384-186-R-J1-PDC patient-derived pancreatic carcinoma cell line growth inhibition [CLK]
Conditions: for IC50: curve of first compound; for viability, T/C: stronger effect = lower value
Text: A high-throughput screen of multi-cell type tumor spheroids was designed to identify active combinations of […] and targeted small molecules. Complex spheroids include a stromal component modeled by human endothelial cells (HUVEC) and fibroblasts modeled by human mesenchymal stem cells (MSCs). The concentration ranges selected for each drug and investigational agent were based upon clinically achievable concentrations if the clinical Cmax of the agent was known.
Compounds. The drugs and investigational agents: cirtuvivint (SM08502; NSC835563), CC-671 (NSC850746), vemurafenib (NSC761431), tapotoclax (NSC804041), sotorasib (NSC818433), adagrasib (NSC831453), MRTX-1133 (NSC836407), BAY2416964 (NSC825713), copanlisib (NSC816437), inavolisib (NSC800729), abemaciclib (NSC768073), osimertinib (NSC779217), entinostat (NSC756642), eltanexor (KPT-8602, NSC794443), venetoclax (NSC766270), ceralasertib (NSC777638), bortezomib (NSC756655), olaparib (NSC753686), talazoparib (NSC767125), alisertib (NSC759677), peposertib (NSC802822), gemcitabine (NSC613327), 5-fluorouracil (NSC19893), SN-38 (NSC673596), oxaliplatin (NSC266046), paclitaxel (NSC125973), and doxorubicin (NSC123127), were obtained from the National Cancer Institute (NCI) Developmental Therapeutics Program Chemical Repository. The FDA-approved anticancer drug set is available from the Developmental Therapeutics Program at https://dtp.cancer.gov/organization/dscb/obtaining/available plates.htm. […] The stock solutions were prepared in dimethyl sulfoxide (DMSO, Sigma-Aldrich, St. Louis, MO, cat. D2650), except for the platinum complexes which were prepared in saline (Quality Biological, Gaithersburg, MD, cat. 114-055-101), at 800-fold the tested concentration and stored at -70 degrees C prior to their use. All drugs and investigational agents were tested over a range starting from a high concentration at or near the clinical Cmax and decreasing in half-log increments. If the clinical Cmax for an agent had not been determined, the highest concentration tested was 10 microM.
Cell Culture. All cells were maintained in an incubator at 37 degrees C and 5% CO2 with 95% humidity. The PDC lines were cultured according to standard operating procedures established by the NCI PDMR. Briefly, all PDCs were thawed and cultured in Matrigel-coated flasks prepared with a working solution of 1X Ham's F-12 nutrient mix, without supplementation (Invitrogen, Waltham, MA, cat. 11765054), 100 U/mL penicillin-streptomycin (Invitrogen, cat. 15140122), and 2.5% Matrigel (Corning Inc., Corning, NY, cat. 354248) for the first three passages. The 947758-054-R-J2-PDC line was cultured in 6B/Colon 1A media, which includes advanced DMEM/F-12 (Thermo Fisher Scientific, cat. 12634028), 10 mM HEPES (Thermo Fisher Scientific, cat. 15630080), 1X GlutaMAX supplement (Thermo Fisher Scientific, cat. 35050061), 0.1 mg/mL primocin (InvivoGen, cat. ant-pm-2), 10% defined fetal bovine serum, heat inactivated (HyClone Laboratories Inc., cat. SH30070.03HI), 1.25 mM N-Acetyl-L-cysteine (Sigma-Aldrich, cat. A9165), 10 mM nicotinamide (Sigma-Aldrich, cat. N0636), 1X B-27 supplement (Thermo Fisher Scientific, cat. 17504044), 1X N-2 supplement (Thermo Fisher Scientific, cat. 17502048), and 10 microM Y-27632 dihydrochloride (Tocris Bioscience, cat. 1254). The 876862-298-R-J1-PDC was cultured in 6E media, which includes all 6B/Colon 1A media components plus 50% L-WRN conditioned media (ATCC, cat. CRL-3276), 50 ng/mL recombinant human EGF recombinant protein (hEGF; Thermo Fisher Scientific, cat. PHG0311), 10 ng/mL recombinant human fibroblast growth factor 10 (hGFG-10; PeproTech, cat. 100-26), 1 ng/mL recombinant human fibroblast growth factor 2 (hFGF-2; PeproTech, cat. 100-18B), and 1 µM prostaglandin E2 (PGE2; Tocris, cat. 2296). The 227483-062-R1-J1-PDC line was cultured in Panc media, containing all 6E components except hFGF-2, with the addition of 500 nM SB-431542 (Selleckchem, cat. S1067) and 10 nM gastrin (Tocris, cat. 3006). […]
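Note: spheroids exposed to agents for 7 days before reading.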
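Throughout, for viability, T/C: luminescence signal used as a stand-in for viable cells.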

C=C(F)C(=O)N1CCN(c2nc(OCC3CCCN3C)nc3c2CCN(c2cccc4cccc(Cl)c24)C3)CC1CC#N (configuration not stated) + CN1CCN(c2cc(C(=O)Nc3cc4cc(-c5cnn(C)c5)ccc4cn3)ccn2)CC1
IC50 (second compound 0.0316 µM): 1890 nM | IC50 (second compound 0.1 µM): 1630 nM | IC50 (second compound 0.316 µM): < 31.6 nM | IC50 (second compound 1 µM): < 31.6 nM | IC50 (second compound 3.16 µM): < 31.6 nM | IC50 (second compound 10 µM): < 31.6 nM | viability, T/C (second compound 0.0316 µM, first compound 0.0316 µM): 96.6% | viability, T/C (second compound 0.0316 µM, first compound 0.1 µM): 97.2% | viability, T/C (second compound 0.0316 µM, first compound 0.316 µM): 91.7% | viability, T/C (second compound 0.0316 µM, first compound 1 µM): 83.5% | viability, T/C (second compound 0.0316 µM, first compound 3.16 µM): 23.2% | viability, T/C (second compound 0.0316 µM, first compound 10 µM): 0.18% | viability, T/C (second compound 0.1 µM, first compound 0.0316 µM): 94.1% | viability, T/C (second compound 0.1 µM, first compound 0.1 µM): 101% | viability, T/C (second compound 0.1 µM, first compound 0.316 µM): 81.4% | viability, T/C (second compound 0.1 µM, first compound 1 µM): 72.5% | viability, T/C (second compound 0.1 µM, first compound 3.16 µM): 22.4% | viability, T/C (second compound 0.1 µM, first compound 10 µM): 0.15% | viability, T/C (second compound 0.316 µM, first compound 0.0316 µM): 30.5% | viability, T/C (second compound 0.316 µM, first compound 0.1 µM): 32.5% | viability, T/C (second compound 0.316 µM, first compound 0.316 µM): 30.3% | viability, T/C (second compound 0.316 µM, first compound 1 µM): 23.9% | viability, T/C (second compound 0.316 µM, first compound 3.16 µM): 17.9% | viability, T/C (second compound 0.316 µM, first compound 10 µM): 0.31% | viability, T/C (second compound 1 µM, first compound 0.0316 µM): 1.57% | viability, T/C (second compound 1 µM, first compound 0.1 µM): 1.56% | viability, T/C (second compound 1 µM, first compound 0.316 µM): 2.02% | viability, T/C (second compound 1 µM, first compound 1 µM): 1.49% | viability, T/C (second compound 1 µM, first compound 3.16 µM): 1.66% | viability, T/C (second compound 1 µM, first compound 10 µM): 0.44% | viability, T/C (second compound 3.16 µM, first compound 0.0316 µM): 0.52% | viability, T/C (second compound 3.16 µM, first compound 0.1 µM): 0.83% | viability, T/C (second compound 3.16 µM, first compound 0.316 µM): 0.4% | viability, T/C (second compound 3.16 µM, first compound 1 µM): 0.56% | viability, T/C (second compound 3.16 µM, first compound 3.16 µM): 0.32% | viability, T/C (second compound 3.16 µM, first compound 10 µM): 0.34% | viability, T/C (second compound 10 µM, first compound 0.0316 µM): 0.6% | viability, T/C (second compound 10 µM, first compound 0.1 µM): 0.4% | viability, T/C (second compound 10 µM, first compound 0.316 µM): 0.42% | viability, T/C (second compound 10 µM, first compound 1 µM): 0.45% | viability, T/C (second compound 10 µM, first compound 3.16 µM): 0.17% | viability, T/C (second compound 10 µM, first compound 10 µM): 0.19%
